According to patent publication US8283322B2, “Formulations for nonsurgical exogenous crosslink therapy” (Orthopeutics, LP, priority 2008, dated 2012):
In brackets after ≈: the same amount, converted by molar mass.

Legend:
[1] = test system: annulus fibrosus specimens from bovine lumbar intervertebral discs; experiment: Tear resistance of annulus fibrosus (radial tear propagation); conditions: soaked two days in 0.15M PBS plus 0.33% genipin
Description: Ten annulus fibrosus circumferentially aligned specimens from bovine lumbar (T12-L5) intervertebral discs were divided into two groups and either soaked two days in a 0.15M PBS or a 0.15M PBS plus 0.33% genipin solution. A custom loading fixture attached to a uniaxial materials testing system was designed to hold an annulus specimen perpendicular to the travel of a metal cylinder placed in a pre-existing radial cut. The cylinder was then pulled radially (perpendicular to lamellae) towards the external layer. Time dependent force and displacement data was acquired simultaneously. Tearing resistance was quantified in two ways: peak force normalized by specimen thickness and tearing energy per area of tear. Differences between groups were analyzed using the Mann-Whitney non-parametric test.

[2] = test system: calf intervertebral discs; experiment: Hydration change / fluid flux of disc regions (soaking, creep loading, resoaking); set-up: species or system calf (4 month-old bovine); conditions: for % increase by Genipin, NP: flux into and out of the central nucleus region vs control flux
Description: By measuring the change in hydration of different regions of the intervertebral disc (nucleus pulposus, inner annulus, and outer annulus fibrosus) prior to and after periods of soaking, sustained compressive loading, and resoaking, the fluid flux to and from different regions can be determined. By comparing these measurements between control discs and discs treated with crosslinking reagents known to have minimal cytotoxicity, we see the effect of crosslinking treatment on fluid flux and permeability. A total of 24 calf (4 month-old bovine) intervertebral discs were used for this study. Water content of three different areas of the […] tissue were tested-the nucleus pulposus, inner annulus fibrosus and outer annulus fibrosus. Hydration change was determined by weighing the specimen using a micro-balance (sensitivity: 0.1 mg). Water content (M) was calculated as: M=(Wet Weight-Dry Weight)/Wet Weight=g H2O/g Wet Weight The drying procedure consisted of putting the specimens in the oven with a controlled temperature of 90° C. for 24 hrs. The specimens were separated into four tests: • 1. Group A: Three specimens were in this group. It served as a control group. The specimens were soaked in PBS (phosphate buffered saline) for 1 day and then the hydration analysis was performed. • 2. Group B1: Four specimens were in this group. In addition to the one day PBS soaking, the specimens soaked in PBS for 2 more days as a control and then the hydration analysis was performed. • Group B2: Five specimens were in this group. In addition to the one day PBS soaking, the specimens were soaked in 0.33% genipin solution for 2 days and then the hydration analysis was performed. • 3. In group C, a small daytime amount of constant compressive loading (creep) was simulated. • C1: Three specimens were in this group. The specimens were soaked in PBS for 3 days and then […] of compression was applied by a materials testing machine for 1 hour. The disc was compressed in a 5 degree of flexion posture produced by two rollers attached to the loading ram of the materials testing machine. The hydration analysis was performed immediately after the creep loading. • C2: Three specimens were in this group. The specimens were soaked in 0.33% Genipin solution for 2 days after 1 day of PBS soaking and performed identical creep loading with […] compressive load. The hydration analysis was performed immediately after the creep loading. • 4. In group D, the imbibition of water following a period of compressive loading that typically occurs in the night time as a person is in a recumbent posture was simulated. • D1: The specimens were soaked in PBS solution for 3 days and then 1 hr of creep loading at […] was applied. After the creep loading, the specimens were placed in a container in 1 PBS for one more day followed by the hydration analysis. • D2: Three specimens were included and were soaked in 0.33% genipin solution for 2 days after one day of PBS soaking. A creep load of […] for 1 hr was then applied. The specimens were put in PBS for another day followed by the hydration analysis.

calf lumbar spinal discs = experiment: Diffusion study in calf lumbar spinal discs (area of diffusion zone, ImageJ); conditions: 0.1% (w/v) SDS in PBS, 1 hr, 37° C.; p=0.021
Protocol: FIG. 12—Diffusion kinetics of genipin and BSA in calf lumbar spinal discs. 200 μl of 0.33% (w/v) or 1 mg/ml BSA-Texas Red were injected at a depth of 1 cm into the discs of individual calf lumbar motion segments and incubated for 1, 3 or 6 hours at 37° C. Samples were transected and the area of each diffusion zone at each time point and for each reagent was determined from photographs using ImageJ software.
FIG. 13—Effect of surfactants on the diffusion of GP and BSA-TR. 200 μl of 0.33% (w/v) or 1 mg/ml BSA-Texas Red formulated in PBS in the absence of presence of 0.1% (w/v) of either Tween-20 or SDS were injected at a depth of 1 cm into the discs of individual calf lumbar motion segments. Segments were incubated for 1 hr at 37° C. and the samples were then transected and the area of each diffusion zone determined from photographs using ImageJ software.
In order to observe the diffusion kinetics of these markers, GP (0.33% (w/v)) or BSA-TR (1 mg/ml) were dissolved in PBS and 200 μl injected at a depth of 1 cm into the discs of individual calf lumbar motion segments and incubated at 37° C. for 1, 3 or 6 hrs in sealed ZipLoc bags containing a sheet of paper towel moistened with H2O. […] In some cases, however, diffusion zones merged and were not possible to quantify and in subsequent experiments injections were limited to the left and right lateral regions. […]

physchem = assay type: physicochemical
Description: In the case of crosslinking agents that are not very water-soluble, additional reagents may be required to maintain the solubility of the crosslinking agent. Such reagents should be miscible with water and function to increase the solubility of the crosslinking agent by reducing the hydrophilicity of the aqueous medium. […] At the upper limit, GP was soluble in 100% DMSO to a level of 2.6M. […] Thus manipulation of the buffer concentration and the addition of co-solvents allows for the manipulation of the crosslinking reagent concentration to the desired level. The values were all determined at ambient room temperature. Crosslinker solubility could also be increased by increasing the temperature of the solvent.

[3] = test system: homogenized annulus tissue; conditions: bovine
Protocol: Increasing concentrations of protein crosslinkers were added to homogenized annulus tissue and incubated for either 1 hr (EDC, GP, MG, PA and GA), 2 hrs (TG) or 6 hrs (DT and LT). Crosslinking was quantified by determining the amount of hydroxyproline (HYP) released from the tissue by collagenase digestion.
Homogenized annulus tissue was treated with sub-saturating concentrations of various crosslinkers at varying pH and incubated for either 1 hr (EDC, GP, MG, PA and GA), 2 hrs (TG) or 6 hrs (LT). Crosslinking was quantified by determining the amount of hydroxyproline (HYP) released from the tissue by collagenase digestion.
In order to determine the effective concentration range for various crosslinking reagents we incubated samples of annulus tissue in increasing concentrations of either genipin (GP), methylglyoxal (MG), proanthrocyanidin (PA), L-threose (LT), D-threose (DT), dimethylaminopropyl) carbodiimide hydrochloride (EDC) or transglutaminase (TG). Crosslinking efficiency was measured indirectly by monitoring the release of peptides containing hydroxyproline upon subsequent digestion with collagenase. Glutaraldehyde (GA), a commonly used, but highly toxic protein crosslinker was used as a positive control.
To test this hypothesis, the inventors subjected calf annulus fibrosus tissue to crosslinking with sub-saturating levels of our reagents at varying pH. In order to maintain optimal buffering capacity at each pH, different buffers were selected for each point.

[4] = combined fluid flow out (creep) and in (resoaking)

## COC(=O)C1=CO[C@@H](O)[C@@H]2C(CO)=CC[C@H]12 [Genipin, genipin]
[1]; p=0.047 vs control
  Total energy per area of tear: 40.2 mJ/mm^2
[1]; p=0.076 vs control
  Normalized peak force: 42.7 N/mm
[2]; [4]
  Genipin Flux, Inner AF: 0.1008
  Genipin Flux, NP: 0.04983
  Genipin Flux, Outer AF: 0.05294
[2]
  % increase by Genipin, NP: 63.7%
[2]; listed as genipin
  % increase by Genipin, NP: 64%
[2]; flux vs control flux
  % increase by Genipin, Inner AF: 17.3%
  % increase by Genipin, Outer AF: 5.7%
Calf lumbar spinal discs
  enhancement of diffusion by SDS: approximately 30%
physchem; aqueous buffer
  solubility: 60.4 mM (≈ 13.7 mg/mL)
physchem; aqueous with cosolvent or surfactant or cyclodextrin
  solubility: 74.6 mM (≈ 16.9 mg/mL)
physchem; organic solvent or mixture
  solubility: 2600 mM (≈ 588 mg/mL)
physchem; pH 9, aqueous buffer
  solubility: 39.6 mM (≈ 8.96 mg/mL)
physchem; pH 9, aqueous with cosolvent or surfactant or cyclodextrin
  solubility: 63.3 mM (≈ 14.3 mg/mL)
[3]
  T1/2: 10 to 18 min
